# Patent US20240025912A1 (Merck Sharp & Dohme LLC, priority 2022, published 2024)
# Target: GST-RIPK1 (recombinant GST-RIPK1 kinase domain (residues 1-327)) (Homo sapiens (Human), UniProt Q13546)
# Experiment: RIPK1-ADP-Glo Enzymatic Assay
# Assay type: biochemical
# Settings: 25 nM GST-RIPK1, 300 μM ATP, 3 μM dephosphorylated-MBP, 30 min pre-incubation, 150 min reaction
# Protocol: The enzymatic activity of RIPK1 is measured using an assay derived from ADP-Glo kit (TMPromega), which provides a luminescent-based ADP detection system. Specifically, the ADP generated by RIPK1 kinase is proportionally detected as luminescent signals in a homogenous fashion. In this context, the assessment of the inhibitory effect of small molecules (EC50) is measured by the effectiveness of the compounds to inhibit the ATP to ADP conversion by RIPK1.
# In this assay, the potency (EC50) of each compound was determined from a ten-point (1:3 serial dilution; top compound concentration of 100000 nM) titration curve using the following outlined procedure. To each well of a white ProxiPlus 384 well-plate, 30 nL of compound (1% DMSO in final assay volume of 3 μL) was dispensed, followed by the addition of 2 μL of 1× assay buffer (25 mM Hepes 7.3, 20 mM MgCl2, 50 mM NaCl, 1 mM DTT, 0.005% Tween20, and 0.02% BSA) containing 37.5 nM of GST-RIPK1 (recombinant GST-RIPK1 kinase domain (residues 1-327) enzyme produced from baculovirus-transfected Sf21 cells: MW 62 kDa). Plates were placed in an ambient temperature humidified chamber for a 30 min pre-incubation with compound. Subsequently, each reaction was initiated by the addition of 1 μL 1× assay buffer containing 900 μM ATP and 3 μM dephosphorylated-MBP substrate. The final reaction in each well of 3 μL consists of 25 nM of GST-RIPK1, 300 μM ATP, and 3 μM dephosphorylated-MBP. Kinase reactions were allowed to proceed for 150 min prior to adding ADP-Glo reagents per Promega's outlined kit protocol. Dose-response curves were generated by plotting percent effect (% product conversion; Y-axis) vs. Log 10 compound concentrations (X-axis). EC50 values were calculated using a non-linear regression, four-parameters sigmoidal dose-response model.
# Chain of GST-RIPK1 (recombinant GST-RIPK1 kinase domain (residues 1-327)) (Q13546 1-327): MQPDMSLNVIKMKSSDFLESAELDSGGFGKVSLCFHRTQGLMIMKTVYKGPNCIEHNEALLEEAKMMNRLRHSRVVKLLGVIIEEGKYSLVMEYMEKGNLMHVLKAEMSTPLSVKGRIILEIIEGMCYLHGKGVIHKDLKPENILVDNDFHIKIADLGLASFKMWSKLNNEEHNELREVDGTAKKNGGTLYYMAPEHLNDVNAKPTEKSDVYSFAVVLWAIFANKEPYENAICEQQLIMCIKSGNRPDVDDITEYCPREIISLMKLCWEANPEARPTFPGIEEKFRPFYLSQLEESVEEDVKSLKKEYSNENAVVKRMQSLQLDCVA
row,Structure (SMILES),EC50 [nM]
1,"O=c1n(C23CCC(CC2)C3)nc2n1[C@H](c1ccccc1)CC2 [Compound 1-1, (5S)-2-(bicyclo[2.2.1]heptan-1-yl)-5-phenyl-2,5,6,7-tetrahydro-3H-pyrrolo[2,1-c][1,2,4]triazol-3-one]",21.6
2,"O=c1n(C23CC(F)(C2)C3)nc2n1[C@H](c1cc(F)cc(F)c1)CC2 [Compound 1-2, (5S)-5-(3,5-difluorophenyl)-2-(3-fluorobicyclo[1.1.1]pentan-1-yl)-2,5,6,7-tetrahydro-3H-pyrrolo[2,1-c][1,2,4]triazol-3-one]",22.8
3,"O=c1n(C23CCC(F)(CC2)C3)nc2n1[C@H](c1cc(F)cc(F)c1)CC2 [Compound 1-3, (5S)-5-(3,5-difluorophenyl)-2-(4-fluorobicyclo[2.2.1]heptan-1-yl)-2,5,6,7-tetrahydro-3H-pyrrolo[2,1-c][1,2,4]triazol-3-one]",34.8
4,"O=c1n(C23CCC(C2)C3)nc2n1[C@H](c1cc(F)cc(F)c1)CC2 [Compound 1-4, (5S)-2-(bicyclo[2.1.1]hexan-1-yl)-5-(3,5-difluorophenyl)-2,5,6,7-tetrahydro-3H-pyrrolo[2,1-c][1,2,4]triazol-3-one]",31.1
5,"N#CC12CC(n3nc4n(c3=O)[C@H](c3cc(F)cc(F)c3)CC4)(C1)C2 [Compound 1-5, 3-[(5S)-5-(3,5-difluorophenyl)-3-oxo-6,7-dihydro-3H-pyrrolo[2,1-c][1,2,4]triazol-2(5H)-yl]bicyclo[1.1.1]pentane-1-carbonitrile]",14.8
6,"O=c1n(C23CC(F)(C2)C3)nc2n1[C@H](c1ccccc1)CC2 [Compound 1-6, (5S)-2-(3-fluorobicyclo[1.1.1]pentan-1-yl)-5-phenyl-2,5,6,7-tetrahydro-3H-pyrrolo[2,1-c][1,2,4]triazol-3-one]",51.2
7,"O=c1n(C23CC(C2)C3)nc2n1[C@H](c1cc(F)cc(F)c1)CC2 [Compound 1-7, (5S)-2-(bicyclo[1.1.1]pentan-1-yl)-5-(3,5-difluorophenyl)-2,5,6,7-tetrahydro-3H-pyrrolo[2,1-c][1,2,4]triazol-3-one]",98.4
8,"O=c1n(C23CC(Cl)(C2)C3)nc2n1[C@H](c1cc(F)cc(F)c1)CC2 [Compound 1-8, (5S)-2-(3-chlorobicyclo[1.1.1]pentan-1-yl)-5-(3,5-difluorophenyl)-2,5,6,7-tetrahydro-3H-pyrrolo[2,1-c][1,2,4]triazol-3-one]",21.8
9,"O=c1n(C23CC(F)(C2)C3)nc2n1[C@H](c1ccccc1F)CC2 [Compound 1-9, (5S)-2-(3-fluorobicyclo[1.1.1]pentan-1-yl)-5-(2-fluorophenyl)-2,5,6,7-tetrahydro-3H-pyrrolo[2,1-c][1,2,4]triazol-3-one]",26.1
10,"O=c1n(C23CC(F)(C2)C3)nc2n1[C@H](c1cncc(F)c1)CC2 [Compound 1-10, (5S)-2-(3-fluorobicyclo[1.1.1]pentan-1-yl)-5-(5-fluoropyridin-3-yl)-2,5,6,7-tetrahydro-3H-pyrrolo[2,1-c][1,2,4]triazol-3-one]",272
11,"N#CC12CC(n3nc4n(c3=O)[C@H](c3cncc(F)c3)CC4)(C1)C2 [Compound 1-11, 3-[(5S)-5-(5-fluoropyridin-3-yl)-3-oxo-6,7-dihydro-3H-pyrrolo[2,1-c][1,2,4]triazol-2(5H)-yl]bicyclo[1.1.1]pentane-1-carbonitrile]",300
12,"O=c1n(C23CC(c4ccccc4)(C2)C3)nc2n1[C@H](c1cc(F)cc(F)c1)CC2 [Compound 1-12, (5S)-5-(3,5-difluorophenyl)-2-(3-phenylbicyclo[1.1.1]pentan-1-yl)-2,5,6,7-tetrahydro-3H-pyrrolo[2,1-c][1,2,4]triazol-3-one]",49.1
13,"O=c1n(C23CC(c4ccccc4)(C2)C3)nc2n1[C@H](c1cncc(F)c1)CC2 [Compound 1-13, (5S)-5-(5-fluoropyridin-3-yl)-2-(3-phenylbicyclo[1.1.1]pentan-1-yl)-2,5,6,7-tetrahydro-3H-pyrrolo[2,1-c][1,2,4]triazol-3-one]",514
14,"CC12CC(n3nc4n(c3=O)[C@H](c3cc(F)cc(F)c3)CC4)(CO1)C2 [Compound 1-14, (5S)-5-(3,5-difluorophenyl)-2-(1-methyl-2-oxabicyclo[2.1.1]hexan-4-yl)-2,5,6,7-tetrahydro-3H-pyrrolo[2,1-c][1,2,4]triazol-3-one]",152
15,"O=c1n(C23CC(Cl)(C2)C3)nc2n1[C@H](c1cncc(F)c1)CC2 [Compound 1-15, (5S)-2-(3-chlorobicyclo[1.1.1]pentan-1-yl)-5-(5-fluoropyridin-3-yl)-2,5,6,7-tetrahydro-3H-pyrrolo[2,1-c][1,2,4]triazol-3-one]",111
16,"O=c1n(C23CC(F)(C2)C3)nc2n1[C@H](c1cccc(F)c1)CC2 [Compound 1-16, (S)-2-(3-fluorobicyclo[1.1.1]pentan-1-yl)-5-(3-fluorophenyl)-2,5,6,7-tetrahydro-3H-pyrrolo[2,1-c][1,2,4]triazol-3-one]",23.1
17,"N#CC12CC(n3nc4n(c3=O)[C@H](c3ccccc3)CC4)(C1)C2 [Compound 1-17, 3-[(5S)-3-oxo-5-phenyl-6,7-dihydro-3H-pyrrolo[2,1-c][1,2,4]triazol-2(5H)-yl]bicyclo[1.1.1]pentane-1-carbonitrile]",36.9
18,"COC(=O)C12CC(n3nc4n(c3=O)[C@H](c3cc(F)cc(F)c3)CC4)(C1)C2 [Compound 1-18, methyl 3-[(5S)-5-(3,5-difluorophenyl)-3-oxo-6,7-dihydro-3H-pyrrolo[2,1-c][1,2,4]triazol-2(5H)-yl]bicyclo[1.1.1]pentane-1-carboxylate]",114
19,"COC(=O)C12CC(n3nc4n(c3=O)[C@H](c3ccccc3)CC4)(C1)C2 [Compound 1-19, methyl 3-[(5S)-3-oxo-5-phenyl-6,7-dihydro-3H-pyrrolo[2,1-c][1,2,4]triazol-2(5H)-yl]bicyclo[1.1.1]pentane-1-carboxylate]",289
20,"O=c1n(C23C4C5C2C2C3C4C52F)nc2n1[C@H](c1cc(F)cc(F)c1)CC2 (stereo partly drawn) [Compound 1-20, (5S)-5-(3,5-difluorophenyl)-2-(4-fluoropentacy-clo[4.2.0.0~2,5~.0~3,8~.0~4,7~]octan-1-yl)-2,5,6,7-tetrahydro-3H-pyrrolo[2,1-c][1,2,4]triazol-3-one]",38.5

# Results, then the compound that gave them:
row,EC50 [nM],Structure (SMILES)
1,21.9,"O=c1n(C23CC(F)(C2)C3)nc2n1[C@H](c1ccccc1)CC2F (single isomer, unassigned) [Compound 6-4, (5S)-7-(S or R)-fluoro-2-(3-fluorobicyclo[1.1.1]pentan-1-yl)-5-phenyl-2,5,6,7-tetrahydro-3H-pyrrolo[2,1-c][1,2,4]triazol-3-one]"
2,274,"N#CC12CC(n3nc4n(c3=O)[C@H](c3cc(F)cc(F)c3)CC4F)(C1)C2 (single isomer, unassigned) [Compound 6-5, 3-[(5S)-5-(3,5-difluorophenyl)-7-(S or R)-fluoro-3-oxo-6,7-dihydro-3H-pyrrolo[2,1-c][1,2,4]triazol-2(5H)-yl]bicyclo[1.1.1]pentane-1-carbonitrile]"
3,20.5,"N#CC12CC(n3nc4n(c3=O)[C@H](c3cc(F)cc(F)c3)CC4F)(C1)C2 (single isomer, unassigned) [Compound 6-6, 3-[(5S)-5-(3,5-difluorophenyl)-7-(S or R)-fluoro-3-oxo-6,7-dihydro-3H-pyrrolo[2,1-c][1,2,4]triazol-2(5H)-yl]bicyclo[1.1.1]pentane-1-carbonitrile]"
4,505,"N#CC12CC(n3nc4n(c3=O)[C@H](c3ccccc3)CC4F)(C1)C2 (single isomer, unassigned) [Compound 6-7, 3-[(5S)-7-(S or R)-fluoro-3-oxo-5-phenyl-6,7-dihydro-3H-pyrrolo[2,1-c][1,2,4]triazol-2(5H)-yl]bicyclo[1.1.1]pentane-1-carbonitrile]"
5,21.8,"N#CC12CC(n3nc4n(c3=O)[C@H](c3ccccc3)CC4F)(C1)C2 (single isomer, unassigned) [Compound 6-8, 3-[(5S)-7-(S or R)-fluoro-3-oxo-5-phenyl-6,7-dihydro-3H-pyrrolo[2,1-c][1,2,4]triazol-2(5H)-yl]bicyclo[1.1.1]pentane-1-carbonitrile]"
6,68.9,"N#CC12CC(n3nc4n(c3=O)[C@H](c3ccccc3F)CC4F)(C1)C2 (single isomer, unassigned) [Compound 6-9, 3-[(5S)-7-(S or R)-fluoro-5-(2-fluorophenyl)-3-oxo-6,7-dihydro-3H-pyrrolo[2,1-c][1,2,4]triazol-2(5H)-yl]bicyclo[1.1.1]pentane-1-carbonitrile]"
7,18.1,"N#CC12CC(n3nc4n(c3=O)[C@H](c3ccccc3F)CC4F)(C1)C2 (single isomer, unassigned) [Compound 6-10, 3-[(5S)-7-(S or R)-fluoro-5-(2-fluorophenyl)-3-oxo-6,7-dihydro-3H-pyrrolo[2,1-c][1,2,4]triazol-2(5H)-yl]bicyclo[1.1.1]pentane-1-carbonitrile]"
